Experimental data as given in patent publication US7476650B2, “Enzyme inhibition” (Yale University, priority 1999, dated 2009).
Read-outs that look alike come from different tables or passages of the source. Where a SMILES comes first, the peptide text is derived from it. The star is where a group is joined. Cbz = O=C(OCc1ccccc1)*

Columns and labels:
[1] = test system: ubiquitinated proteins in Hela cells; test: α-ubiquitin immunoblot of treated Hela cells; assay type: cell-based; conditions: epoxomicin 10 μM, 2 hours
Protocol: (§1) The control experiment (Crtl) was carried out with vehicle only.

[2] = target: T1, purified murine spleen proteasome (Mus musculus, UniProt O35955+P28063+P70195); test: [3H]-epoxomicin binding to purified proteasome; conditions: compared with epoxomicin-biotin
T1 construct: from tissue; host or cells: murine spleen
T1 sequence (P28063 73-276): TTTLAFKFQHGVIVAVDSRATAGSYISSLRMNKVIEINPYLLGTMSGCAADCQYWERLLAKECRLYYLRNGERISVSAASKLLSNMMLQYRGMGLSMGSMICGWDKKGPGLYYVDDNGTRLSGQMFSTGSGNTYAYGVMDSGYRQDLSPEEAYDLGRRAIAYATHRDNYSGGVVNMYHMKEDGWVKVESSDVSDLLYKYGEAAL
T1 sequence (O35955 40-273): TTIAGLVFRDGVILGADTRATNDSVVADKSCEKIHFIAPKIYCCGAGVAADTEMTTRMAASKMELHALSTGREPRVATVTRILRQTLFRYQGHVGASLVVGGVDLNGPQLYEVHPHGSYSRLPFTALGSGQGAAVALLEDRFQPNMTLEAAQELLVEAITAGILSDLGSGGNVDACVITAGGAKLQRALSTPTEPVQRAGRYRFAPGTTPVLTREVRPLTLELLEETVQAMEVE
T1 sequence (P70195 44-277): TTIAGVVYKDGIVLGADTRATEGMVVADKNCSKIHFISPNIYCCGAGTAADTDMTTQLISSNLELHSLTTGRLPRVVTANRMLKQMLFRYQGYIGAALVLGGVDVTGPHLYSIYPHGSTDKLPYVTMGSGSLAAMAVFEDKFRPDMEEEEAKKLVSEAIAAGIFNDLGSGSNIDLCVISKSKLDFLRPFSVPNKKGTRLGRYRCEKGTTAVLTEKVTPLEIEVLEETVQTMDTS

[3] = target: T2, chymotrypsin-like activity of purified bovine erythrocyte 20S proteasome (Bos taurus, UniProt Q32KL2); test: Enzyme kinetic assay, chymotrypsin-like activity (Suc-LLVY-AMC); assay type: biochemical
T2 construct: from tissue; host or cells: bovine erythrocytes (red blood cells)
From the text: (§2) We investigated the potency of inhibitors of various length. Mono-, di-,tri- and tetraleucine α′,β′-epoxides were ranked by determination of the kobs/[I] values for inhibition of the chymotrypsin-like, trypsin-like, and PGPH activities of purified bovine erythrocyte 20S proteasome.
(§3) Purified bovine erythrocyte proteasome was enzymatically assayed using a variety of different substrates and inhibitors. In order to evaluate the rates of proteolytic inactivation by inhibitors, kassociation (kobs/[I]) values were determined using fluorogenic peptide substrates over a range of inhibitor concentrations.

[4] = target: T3, trypsin-like activity of purified bovine erythrocyte 20S proteasome (Bos taurus, UniProt Q2TBP0); test: Enzyme kinetic assay, trypsin-like activity (Boc-LRR-AMC); assay type: biochemical; conditions: pH 8; Table 4; inhibitor concentration range in parentheses; read-out: kassoc = kobs/[I] Trypsin-like activity
T3 construct: from tissue; host or cells: bovine erythrocytes (red blood cells)
From the text: as §2, §3

[5] = target: T4, PGPH activity of purified bovine erythrocyte 20S proteasome (Bos taurus, UniProt Q3MHN0); test: Enzyme kinetic assay, PGPH activity (Z-LLE-AMC); assay type: biochemical; conditions: pH 8; Table 4; inhibitor concentration range in parentheses; read-out: kassoc = kobs/[I] PGPH activity
T4 construct: from tissue; host or cells: bovine erythrocytes (red blood cells)
Protocol: as §2, with “proteasome. Enzyme kinetic assays were performed as described in Example 2.” for “proteasome.”
as §3

[6] = test system: bovine aortic endothelial (BAE) cells; test: BAE cell proliferation ([methyl-3H]-thymidine incorporation); assay type: cell-based; conditions: Bos taurus, 120 h; Table 5; five days incubation
Protocol: BAE cells were cultured at 7% CO2 and were grown in DMEM supplemented with 10% FBS, 1% penicillin/streptomycin (GIBCO), and 1 mM sodium pyruvate.
Approximately 1000 BAE cells were plated into each well of a 96-well culture plate. After an overnight incubation, different concentrations of proteasome inhibitors were added and incubation was continued for another five days. […] Subsequently, 74 kBq of [methyl-^3H]-thymidine was added to each well of the plate and the plate was incubated for another additional 4 hours. Cells were harvested using a Skatron Cell Harvester and incorporated radioactivity was quantified using liquid scintillation. Proliferation of BAE cells was assayed in triplicate in the presence of different concentrations of peptide epoxides.
Perturbation of the proteasome activity can result in inhibition of cell growth, and can further lead to cell death at elevated concentration of the proteasome inhibitors. This provides an excellent cell-based assay to assess the importance of each catalytic activity of the 20S proteasome in degradation of proteins involved in cell growth. We measured inhibition of proliferation of bovine aortic endothelial (BAE) cells with our α′,β′-epoxyketone-based inhibitors with varying degree of specificity for the PGPH activity.

[7] = test system: mice, DNFB applied to the ear; test: DNFB ear inflammation (irritant sensitivity response); assay type: in vivo; conditions: single dose one hour before DNFB, 24 hours
Protocol: Ear thickness was measured at 0 and 24 hours after DNFB application.

[8] = test system: p53 protein levels in HUVECs; test: α-p53 immunoblot of treated HUVECs; assay type: cell-based; conditions: 5 μM
Protocol: The tumor suppressor p53 is a known target of the proteasome.
as §1

SMILES: CC(C)C[C@@H](C=O)NC(=O)[C@H](CC(C)C)NC(=O)[C@H](CC(C)C)NC(=O)OCc1ccccc1 [Z-LLL-H] (Cbz-Leu-Leu-Leu-aldehyde)
- accumulation of ubiquitinated proteins (anti-ubiquitin antibody) [1]: upper molecular weight bands were also observed

SMILES: [3H]C([3H])([3H])C(=O)N(C)[C@H](C(=O)N[C@H](C(=O)N[C@H](C(=O)N[C@@H](CC(C)C)C(=O)[C@@]1(C)CO1)[C@@H](C)O)[C@@H](C)CC)[C@@H](C)CC [[^3H] epoxomicin]
- protein binding pattern [2]: same protein binding pattern observed with epoxomicin-biotin

SMILES: CC(=O)N[C@@H](CCc1ccccc1)C(=O)N[C@@H](CC(C)C)C(=O)N[C@@H](Cc1ccccc1)C(=O)N[C@@H](CC(C)C)C(=O)[C@@]1(C)CO1 [compound 16]
- kinact/KI ([3]; pH 8, read-out: kobs/[I] for chymotryptic-like activity using Suc-LLVY-AMC): 183000 M⁻¹ s⁻¹
- kinact/KI ([3]; pH 8, Table 4, inhibitor concentration range in parentheses, read-out: kassoc = kobs/[I] Chymotrypsin-like activity): 166000 M⁻¹ s⁻¹
- kinact/KI [4]: 7.1 M⁻¹ s⁻¹
- kinact/KI [5]: 21 M⁻¹ s⁻¹
- IC50 [6]: 20 nM
- inhibition of ear inflammation / ear swelling over vehicle-treated controls ([7]; high dose 2.0 mg/kg (3.6 μmol/kg)): 12 fold
- inhibition of ear inflammation / ear swelling over vehicle-treated controls ([7]; low dose 0.32 mg/kg (0.58 μmol/kg)): reducing ear swelling by the same amount as epoxomicin

SMILES: CC(=O)N[C@@H](CSC(=O)[C@]1([C@@H](O)C(C)C)NC(=O)[C@H](C)[C@@H]1O)C(=O)O [lactacystin]
- increase of p53 levels over untreated cells [8]: 10 fold
